According to PubChem BioAssay (NCI):
Values joined by “and” are separate entries in the source; they are usually repeats but may differ in a detail not shown here. Equal entries are not always repeated.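 Values below derive from 48-hour exposures of cells grown in 96-well plates, with endpoints linearly interpolated between the two concentrations bracketing the appropriate inhibition level. Here, GI50 denotes the concentration required for 50% inhibition of growth. At the TGI there is no net growth.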

Legend:
Assay in all cases: NCI anticancer screen, dose series, 48 h
[1] = test system: 786-0 renal
[2] = test system: NCI-H23 lung
[3] = test system: SF-268 CNS
[4] = test system: OVCAR-5 ovarian
[5] = test system: HCC-2998 colon
[6] = test system: NCI/ADR-RES ovarian
[7] = test system: T-47D breast
[8] = test system: IGROV1 ovarian
[9] = test system: U251 CNS
[10] = test system: MALME-3M melanoma

Row | SMILES | GI50 [1] [µM] | TGI [1] | GI50 [2] [µM] | TGI [2] | GI50 [3] [µM] | TGI [3] [µM] | GI50 [4] [µM] | TGI [4] | GI50 [5] [µM] | TGI [5] | GI50 [6] [µM] | TGI [6] [µM] | GI50 [7] [µM] | TGI [7] [µM] | GI50 [8] [µM] | TGI [8] [µM] | GI50 [9] [µM] | TGI [9] | TGI [10] | GI50 [10] [µM]
1 | Cc1ccc(-n2c3c(c4c(CN5CCOCC5)c(O)ccc42)CCc2ccccc2C3=O)cc1 | 91.5 | > 100 µM | > 100 | > 100 µM | 73.7 | > 100 | > 100 | > 100 µM | > 100 | > 100 µM | 39.1 | > 100 | > 100 | > 100 | 23.3 | > 100 | > 100 | > 100 µM |  | 
2 | NC(=O)c1c[se]c(C2OC(COP(=O)(O)CP(=O)(O)OCC3OC(n4cnc5c(N)ncnc54)C(O)C3O)C(O)C2O)n1 (centres undefined) |  | > 100 µM |  | > 100 µM |  | > 100 |  | > 100 µM |  |  |  |  |  |  |  | > 100 |  | > 100 µM | > 100 µM | 
3 | CC(C)(C)c1cc(CCC(=O)Nc2ccc(Cl)cc2Cl)nc(N)n1 |  | > 100 µM |  | > 100 µM |  | > 100 |  | > 100 µM |  | > 100 µM |  |  |  |  |  | > 100 |  | > 100 µM | > 100 µM | 
4 | CCOC(=O)C[C@@]12CCCNC1(C)CCc1ccccc12 (some centres undefined) |  | > 100 µM |  |  |  |  |  |  |  |  |  |  |  |  |  | > 100 |  | > 100 µM | > 100 µM | 
5 | Cc1ccc(/C=C2\CNC/C(=C\c3ccc(C)cc3)C2=O)cc1 |  | 2.79 µM and 3.89 µM |  | 3.79 µM and 4.1 µM |  | 10.3 | 1.89 | 3.56 µM and 33.9 µM | 1.42 | 2.77 µM and 3.07 µM |  |  |  | > 24.8 | 3.64 | 4.92 | 0.227 | 0.707 µM and 1.76 µM | 6.37 µM and 38.5 µM | 2.4
6 | COc1ccc(CC2=NCCc3cc(OC)c(OC)cc32)cc1Br |  | > 100 µM |  | > 100 µM |  | > 100 |  | 8.32 µM |  | 35.6 µM |  |  |  |  |  |  |  | > 100 µM | 70.4 µM | 
7 | COc1ccc(C2NCCc3c2[nH]c2ccccc32)cc1 (centres undefined) |  | > 100 µM |  | > 100 µM |  | > 100 |  | > 100 µM |  | 65.1 µM |  |  |  |  |  | > 100 |  | > 100 µM | > 100 µM | 
8 | c1cnc2[nH]cc(-c3csc(-c4cn(CCCN5CCCCC5)c5ccccc45)n3)c2c1 | 1.63 | 3.06 µM |  |  | 1.56 | 3.19 | 1.63 | 3.11 µM |  |  |  |  |  |  |  |  | 1.8 | 3.28 µM |  | 
9 | COc1ccc2[nH]c3c(=O)[nH]ncc3c2c1 |  | > 100 µM |  | > 100 µM |  | > 100 |  | > 100 µM |  | > 100 µM |  |  |  |  |  | > 100 |  | > 100 µM | > 100 µM | 
10 | COc1nc2c(c(O)c(C)c(=O)n2OC2OC(COC(C)=O)C(OC(C)=O)C(OC(C)=O)C2OC(C)=O)c(=O)n1C (centres undefined) |  | > 100 µM |  | > 100 µM |  | > 100 |  | > 100 µM |  | > 100 µM |  |  |  |  |  | > 100 |  | > 100 µM |  | 
11 | O=C(Nc1cc(S(=O)(=O)c2ccc(Cl)cc2)ccc1Cl)c1cc(I)cc(I)c1O | 15.6 | 30 µM | 16.5 | 33.9 µM | 18.5 | 40.4 | 18.3 | 38.2 µM | 13.2 | 27.2 µM | 18.7 | 44.6 |  |  | 20 | 37.7 | 15.3 | 30.8 µM | 48.5 µM | 21.1
12 | O=C1C(c2ccccc2)=C(c2ccccc2)[C@H](c2ccccc2)[C@]1(Cc1nnn(-c2ccc([N+](=O)[O-])cc2)c1N1CCOCC1)c1ccccc1 |  | > 37.5 µM |  | > 37.5 µM |  |  |  |  |  | > 37.5 µM |  |  |  |  |  | > 37.5 |  | > 37.5 µM |  | 
13 | CC[P+]1(CC)CCCC1 |  | > 100 µM |  | > 100 µM |  | > 100 |  | > 100 µM |  | > 100 µM |  |  |  |  |  | > 100 |  | > 100 µM | > 100 µM | 
14 | CC1(C)CC(=O)c2c(oc3cc(O)c(O)cc23)C1 |  | > 100 µM |  |  |  | > 100 |  | 56.9 µM |  | > 100 µM |  |  |  |  |  | > 100 |  | > 100 µM | 94.6 µM | 
15 | O=C(O)[C@@H]1CCCC[C@@H]1C(=O)N(C1CCCCC1)C1CCCCC1 |  | > 100 µM |  | > 100 µM |  | > 100 |  | > 100 µM |  | > 100 µM |  |  |  |  |  | > 100 |  | > 100 µM | > 100 µM | 
16 | COC(=O)C1(F)C(=O)NC(=O)NC1OC (centres undefined) |  | > 100 µM |  | > 100 µM |  | > 100 |  | > 100 µM |  |  |  |  |  |  |  | > 100 |  | > 100 µM | > 100 µM | 
17 | CC12OC(C(=O)C13CCC3)C1C(=O)c3ccccc3C(=O)C12 (centres undefined) | > 100 | > 100 µM | 38 | > 100 µM | > 100 | > 100 | > 100 | > 100 µM |  |  | > 100 | > 100 | 44 | > 100 | > 100 | > 100 | 55 | > 100 µM | > 100 µM | 33
18 | O=[N+]([O-])C1C2C=CC(C2)[C@H]1c1ccc(Cl)cc1Cl (some centres undefined) |  | > 100 µM |  | > 100 µM |  | > 100 |  | > 100 µM |  | > 100 µM |  |  |  |  |  |  |  | > 100 µM | > 100 µM | 
19 | C/C(=N/NC(=O)CC(=O)N(C(=O)c1ccccc1Cl)c1ccc(C)cc1)c1cc2ccccc2oc1=O |  | > 100 µM |  | > 100 µM |  | > 100 |  | > 100 µM |  | > 100 µM |  |  |  |  |  | > 100 |  | > 100 µM | > 100 µM | 
20 | COc1cc2cccc(N=Cc3c(Br)ccc(OC)c3OC(C)C)c2cc1OC |  | 69.9 µM |  | > 100 µM |  | > 100 |  | > 100 µM |  | > 100 µM |  |  |  |  |  | > 100 |  | > 100 µM | > 100 µM | 
21 | C[N+](C)=c1nc(N2CCOCC2)ss1 |  | > 100 µM |  | > 100 µM |  | > 100 |  | > 100 µM |  | > 100 µM |  |  |  |  |  | > 100 |  | > 100 µM |  | 
22 | CCCCCCCCCC(=O)Oc1cccc2onc(C)c12 |  | > 100 µM |  | > 100 µM |  | > 100 |  | > 100 µM |  | > 100 µM |  |  |  |  |  | > 100 |  | > 100 µM | > 100 µM | 
23 | Cc1nnc(N=Nc2c(O)[nH]c3ccccc23)n1N |  | > 100 µM |  | > 100 µM |  | > 100 |  | > 100 µM |  | > 100 µM |  |  |  |  |  | > 100 |  | > 100 µM | > 100 µM | 
24 | CC1=C(C(=O)CC(=O)C(=O)NC2C3CC4CC(C3)CC2C4)Sc2ccccc2N1 (centres undefined) |  | > 100 µM |  | > 100 µM |  | > 100 |  | > 100 µM |  | > 100 µM |  |  |  |  |  | > 100 |  | > 100 µM | > 100 µM | 
